The test system of test [1] is U2OS. The experiment in a line: (§1) Here: values are normalized to the negative (DMSO; defined as 0% autophagy induction) and positive (250nM Torin1; mTOR inhibitor; defined as maximal inducer of autophagy = 100%) control compounds and represented as % of autophagy induction. […] The impact of autophagy induction on cells is complex and depends on the affected target. As such, the magnitude of a phenotype may not be equally mirrored in the %-value of autophagy induction and vice versa. The dynamics of the induction may indicate the mode of activation: e.g. activation via phosphorylation or a signaling cascade may occur fast, while activation via transcription factors may take considerably longer. […] Of note, treatment concentrations may be sub-optimal for specific compounds, leading to false negative annotations. Format: functional, Homo sapiens. Conditions: Culturing Media DMEM, 1 % Penicillin/Streptomycin, 10% Fetal bovin serum Add-On: No, Screening Media Control DMEM, Screening Media Samples DMEM.

The subject of test [2] is U2OS. The description is as §1. It is filed as functional, Homo sapiens. The conditions noted are these: Culturing Media DMEM, 1 % Penicillin/Streptomycin, 10% Fetal bovin serum Add-On: No, Screening Media Control DMEM, Screening Media Samples DMEM. The source holds these as a separate data set.
[3] abbreviates: Compound Concentration 0.5 uM, Timepoint 12 hours.
Setting [4] is: Compound Concentration 0.5 uM, Timepoint 24 hours.
Where [5] appears, read: Compound Concentration 0.5 uM, Timepoint 36 hours.
Setting [6] is: Compound Concentration 0.5 uM, Timepoint 60 hours.
The mark [7] stands for this setting: Compound Concentration 2 uM, Timepoint 12 hours.
Setting [8] is: Compound Concentration 2 uM, Timepoint 24 hours.
Where [9] appears, read: Compound Concentration 2 uM, Timepoint 36 hours.
Setting [10] is: Compound Concentration 2 uM, Timepoint 60 hours.
The mark [11] stands for this setting: Compound Concentration 10 uM, Timepoint 12 hours.
Setting [12] is: Compound Concentration 10 uM, Timepoint 24 hours.
Where [13] appears, read: Compound Concentration 10 uM, Timepoint 36 hours.
[14] abbreviates: Compound Concentration 10 uM, Timepoint 60 hours.

For the compound `COc1cc(-n2cnc3cc(-c4ccc(Cl)cc4)sc3c2=O)ccc1OCCN1CCCC1`, the autophagy induction in the test with U2OS [1] (setting [3]) is 4.067%; with U2OS [1] (setting [4]), -3.025%; with U2OS [1] (setting [5]), -2.555%; in the test on U2OS [1] (setting [6]) it was 114.356%; with U2OS [1] (setting [7]), 0.09165%; with U2OS [1] (setting [8]), 1.732%. Also, the autophagy induction in the test on U2OS [1] (setting [9]) was 0.6188%; in the test on U2OS [1] (setting [10]), 114.522%; in the test on U2OS [1] (setting [11]), -26.0106%; in the test on U2OS [1] (setting [12]) it was -13.6231%; in the test with U2OS [1] (setting [13]), -7.579%; with U2OS [1] (setting [14]), 114.809%. In addition, the autophagy induction in the test with U2OS [2] (setting [3]) is -1.171%; with U2OS [2] (setting [4]), 2.823%; in the test on U2OS [2] (setting [5]) it was 1.029%; with U2OS [2] (setting [6]), -2.152%; in the test on U2OS [2] (setting [7]), -14.2965%; in the test with U2OS [2] (setting [8]), -7.54%. Also, the autophagy induction is recorded as -8.816% in the test on U2OS [2] (setting [9]); -10.4701% in the test on U2OS [2] (setting [10]); 7.721% in the test with U2OS [2] (setting [11]); 15.3334% in the test with U2OS [2] (setting [12]); 18.9257% in the test on U2OS [2] (setting [13]); 17.8082% with U2OS [2] (setting [14]).

With `Cc1nc(C#Cc2ccnc(Cl)c2)c(C)n1-c1ccc(OC(F)(F)F)cc1`, the autophagy induction with U2OS [1] (setting [3]) was 6.745%; with U2OS [1] (setting [4]) it was 0.06808%; with U2OS [1] (setting [5]), -1.509%; in the test on U2OS [1] (setting [6]), 114.498%; in the test with U2OS [1] (setting [7]), 7.139%; in the test with U2OS [1] (setting [8]), -0.173%. Further, the autophagy induction is listed as -1.142% in the test with U2OS [1] (setting [9]); 114.204% in the test with U2OS [1] (setting [10]); 1.1344% in the test on U2OS [1] (setting [11]); 2.694% in the test on U2OS [1] (setting [12]); 0.08816% in the test with U2OS [1] (setting [13]); 114.429% in the test on U2OS [1] (setting [14]). In addition, the autophagy induction in the test on U2OS [2] (setting [3]) is given as 6.456%; with U2OS [2] (setting [4]), 5.383%; in the test on U2OS [2] (setting [5]), 5.336%; in the test with U2OS [2] (setting [6]) it was 1.571%; in the test with U2OS [2] (setting [7]), -2.91%; with U2OS [2] (setting [8]), 2.407%. Moreover, the autophagy induction with U2OS [2] (setting [9]) is listed as -0.6644%; with U2OS [2] (setting [10]) it was -12.3758%; in the test on U2OS [2] (setting [11]), 2.059%; with U2OS [2] (setting [12]), 11.3882%; in the test on U2OS [2] (setting [13]) it was 11.4393%; in the test with U2OS [2] (setting [14]), 13.7118%.

Turning to `CCCCN(CC)c1nc(C)nc2c1c(C)cn2-c1c(C)cc(C)cc1C.Cl`, the autophagy induction in the test on U2OS [1] (setting [3]) is recorded as 2.677%; with U2OS [1] (setting [4]), -1.508%; in the test with U2OS [1] (setting [5]), -1.584%; with U2OS [1] (setting [6]) it was 114.355%; in the test on U2OS [1] (setting [7]) it was 3.96%; in the test on U2OS [1] (setting [8]), -1.673%. Besides, the autophagy induction was -1.59% in the test with U2OS [1] (setting [9]); 114.358% with U2OS [1] (setting [10]); -1.788% in the test with U2OS [1] (setting [11]); -2.669% with U2OS [1] (setting [12]); -2.565% in the test with U2OS [1] (setting [13]); 114.561% with U2OS [1] (setting [14]). Further, the autophagy induction amounted to 18.6925% in the test with U2OS [2] (setting [3]); 15.758% with U2OS [2] (setting [4]); 10.5217% with U2OS [2] (setting [5]); 0.4484% in the test with U2OS [2] (setting [6]); 10.9121% in the test with U2OS [2] (setting [7]); 4.341% in the test on U2OS [2] (setting [8]). For the same compound, the autophagy induction with U2OS [2] (setting [9]) is 5.091%; in the test on U2OS [2] (setting [10]), -0.08598%; with U2OS [2] (setting [11]), 2.112%; with U2OS [2] (setting [12]), -2.1052%; with U2OS [2] (setting [13]) it was 3.327%; in the test on U2OS [2] (setting [14]), 1.7732%.

The values are drawn from ChEMBL document CHEMBL5724696, “Autophagy assay results for EUbOPEN Chemogenomics Library” (2024).
